Experimental data reported in patent US7566737B2 (Genfit, priority 2002, dated 2009).

Columns and labels:
human PPARγ = target: T1, human PPARγ (Homo sapiens, UniProt P37231); test: PPARγ/Gal4 transactivation system; type: cell-based; details: 10 μM
T1 construct: expressed in transfected cells; host or cells: RK13 or COS-7
T1 sequence (P37231 238-503 limits assumed): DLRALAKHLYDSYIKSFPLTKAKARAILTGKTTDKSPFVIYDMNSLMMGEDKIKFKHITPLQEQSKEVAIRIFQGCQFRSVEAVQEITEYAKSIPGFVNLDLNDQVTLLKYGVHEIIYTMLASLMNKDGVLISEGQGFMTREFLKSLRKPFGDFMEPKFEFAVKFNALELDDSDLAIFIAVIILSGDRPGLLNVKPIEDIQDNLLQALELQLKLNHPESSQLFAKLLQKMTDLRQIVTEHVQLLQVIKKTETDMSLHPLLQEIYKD
Method: PPAR activation was tested in vitro in RK13 or COS-7 fibroblast cell lines by measuring the transcriptional activity of chimeras composed of the DNA binding domain of the yeast Gal4 transcription factor and the ligand binding domain of the different PPARs. These latter results were then confirmed in cell lines according to the following protocols.
Culture protocols: RK13 were from ECACC (Porton Down, UK) and were grown in DMEM medium supplemented with 10% (V/V) fetal calf serum, 100 U/ml penicillin (Gibco, Paisley, UK) and 2 mM L-glutamine (Gibco, Paisley, UK). COS-7 cells were from ATCC and were grown in DMEM medium supplemented with 10% (V/V) fetal calf serum, 1% penicillin/streptomycine (Biochrom, AG), 1% of amino acids (Gibco) and 1% sodium pyruvate (Gibco).
The culture medium was changed every two days. Cells were kept at 37° C. in a humidified 95% air/5% CO2 atmosphere.
Description of plasmids used for transfection: The plasmids Gal4(RE)_TkpGL3, pGal4-hPPARα, pGal4-hPPARγ, pGal4-hPPARδ and pGal4-φ have been described in the literature (Raspe E et al., 1999). The pGal4-hPPARα, pGal4-hPPARγ and pGal4-hPPARδ constructs were obtained by cloning into the pGal4-φ vector PCR-amplified DNA fragments corresponding to the DEF domains of the human PPARs nuclear receptors.
Transfection of RK13: RK13 cells were seeded in 24-well culture dishes at 5×10^4 cells/well and transfected for 2 hours with the reporter plasmid Gal4(RE)_TkpGL3 (50 ng/well), the expression vectors pGal4-φ, pGal4-hPPARα, pGal4-hPPARγ and pGal-hPPARδ (100 ng/well) and the transfection efficiency control vector pRL-CMV (1 ng/well) according to the previously described protocol (Raspe E, Madsen L, Lefebvre A M, Leitersdorf I, Gelman L, Peinado-Onsurbe J, Dallongeville J, Fruchart J C, Berge R and Staels B, 1999), then incubated for 36 hours with the test compounds. RK13 cells were incubated with the different compounds at concentrations of 10, 30 and 100 μM or 1, 10 and 100 μM for 24 hours. At the end of the experiment, the cells were lysed (Gibco, Paisley, UK) and luciferase activity was determined with a Dual-Luciferase™ Reporter Assay System kit (Promega, Madison, Wis., USA) according to the supplier's instructions. The protein content of the cell extracts was then measured with the Bio-Rad Protein Assay (Bio-Rad, Munich, Germany) as directed by the supplier.
Transfection of COS7: Cells in suspension are transfected, in the presence of 10% (V/V) fetal calf serum, with 150 ng of DNA per well with a pGal4-PPAR/Gal4(RE)_TkpGL3 ratio of 1/10. Cells are then seeded in 96 well plates (4×10^4 cells/well) and incubated for 24 hours at 37° C. Activation with compounds is performed on 24 hours at 37° C. in culture medium without serum. At the end of the activation period, cells are lysed and luciferase activity is determined, using the Steady Glow Luciferase Kit (Promega), according to the supplier's instructions.

[1] = tested on: C57BLKS-m Lepr^db transgenic mice; test: Antidiabetic effect on insulin and glucose; type: in vivo, mouse; details: 0.1 to 100 mg/Kg/day for 28 days
Method: Genetically modified C57BLKS-m Lepr^db mice were used to asses antidiabetic effect of the inventive compounds. Mice were randomized according to their plasma lipid, glucose and insulin contents. Treatments were administered once daily by gavage (10 ml/kg) for the duration of the treatment. For oral administrations, the drugs were suspended in CMC 1% or CMC 1%+Tween 80 0.1%. The plasma glucose was measured using a kit reagent from Biomerieux (France). The plasma insulin was measured using a solid phase two-site enzyme immunoassay from Crystal Chem Inc. (USA). The results are exemplified in FIGS. 5-1 to 5-4 which illustrate the activity of inventive compounds 29 and 62 on glucose and insulin.

maximum induction factor (human PPARγ): 33.9
SMILES: CSc1ccc(C(=O)/C=C/c2cc(C)c(OC(C)(C)C(=O)O)c(C)c2)cc1 [Compound 29, 1-[4-methylthiophenyl]-3-[3,5-dimethyl-4-carboxydimethylmethyloxyphenyl]prop-2-en-1-one]
plasma glucose level [1]: decrease | plasma insulin level [1]: decrease
